Test results: PubChem BioAssay AID1648 (Sanford-Burnham Center for Chemical Genomics, 2009)
Activity calls are given as the source filed them. The rule behind the calls is not given here.

Target: Serine/threonine-protein kinase mTOR (Homo sapiens) (UniProt P42345)
Assay: binders of mTOR FRB domain, biophysical, NMR (AID 1648)
Conditions: NMR binding to FRB domain, chemical shift

Sequence of Serine/threonine-protein kinase mTOR (Homo sapiens) (P42345 2015-2114): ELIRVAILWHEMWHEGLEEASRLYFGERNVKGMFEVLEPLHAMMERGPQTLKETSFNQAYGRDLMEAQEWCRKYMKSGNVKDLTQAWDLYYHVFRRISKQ

| Structure (SMILES) | Kd |
| --- | --- |
| COc1cccc(C(=O)N2CCOCC2)c1 | > 4 mM (inactive) |
| CCOc1ccc(C)cc1S(=O)(=O)n1ccc(C)n1 | > 4 mM (inactive) |
| Cn1ncc2c(=O)n(CC(=O)c3ccccc3)cnc21 | > 4 mM (inactive) |
| c1ccc(-c2noc(-c3ccc4c(c3)OCO4)n2)nc1 | > 4 mM (inactive) |
| O=C1NC2NC(=O)N(c3ccccc3)C2N1 (centres undefined) | > 4 mM (inactive) |
| Cc1nc2ccccc2c(=O)n1-c1cccc(O)c1 | > 4 mM (inactive) |
| COc1ccc2c(c1)OC/C(=C/c1ccc(O)c(O)c1)C2=O | > 4 mM (inactive) |
| CN(C)C(=O)C12CCC(C)(C(=O)O1)C2(C)C (centres undefined) | > 4 mM (inactive) |
| Cc1nc2c(=O)[nH]c3ccccc3c2o1 | > 4 mM (inactive) |
| O=P1(O)c2ccccc2Nc2ccccc21 | > 4 mM (inactive) |
| NC(=O)c1ccsc1NC(=O)c1ccccc1[N+](=O)[O-] | > 4 mM (inactive) |
| c1ccc(-c2csc(Nc3cccnc3)n2)nc1 | > 4 mM (inactive) |
| Cc1ccc(SCc2nc(-c3cccnc3)no2)cc1 | > 4 mM (inactive) |
| Cc1nc2ccccc2c(=O)n1CCCO | > 4 mM (inactive) |
| C[C@H]1[C@H]2CCC3C4CC=C5C[C@@H](N(C)C)CC[C@]5(C)C4CC[C@@]32CN1C (some centres undefined) | > 4 mM (inactive) |
| O=C(Nc1cccc2cccnc12)c1cccnc1 | > 4 mM (inactive) |
| Cn1ccnc1C(O)c1ccccc1 (centres undefined) | > 4 mM (inactive) |
| CC(=O)Nn1c(=O)[nH]c2ccccc2c1=O | > 4 mM (inactive) |
| NC(=O)CSc1nnnn1-c1ccccc1 | > 4 mM (inactive) |
| CC1(C)C(=O)C=C[C@@]2(C)C1CC(=O)[C@]1(C)C2CC[C@@]2(C)[C@H](c3ccoc3)OC(=O)[C@H]3O[C@]321 (some centres undefined) | > 4 mM (inactive) |
| CC1=[N+]([O-])C2(N)CCc3c(no[n+]3[O-])C2(O)C1 (centres undefined) | > 4 mM (inactive) |
| CS(=O)(=O)Nc1cc2c3c(c1)CCN3C(=O)CC2 | > 4 mM (inactive) |
| NC(Cc1c[nH]c2ccccc12)C(=O)O (centres undefined) | > 4 mM (inactive) |

| Structure (SMILES) | Kd |
| --- | --- |
| CC(=O)O[C@H]1CC[C@@]2(C)C(=CC(=O)C3C4CCC(C(C)CCCC(C)C)[C@@]4(C)CCC32)C1 (some centres undefined) | > 4 mM (inactive) |
| Cc1cccc(OCc2nnc(N)s2)c1 | > 4 mM (inactive) |
| OCc1cc(F)cc2c1OCOC2 | > 4 mM (inactive) |
| CC1(O)CC2C(CC1O)C2(C)C (centres undefined) | > 4 mM (inactive) |
| O=C(O)c1cc(=O)c2cccc(O)c2[nH]1 | > 4 mM (inactive) |
| O=C1CSC(=Nc2ccc(Cl)cc2)N1 | > 4 mM (inactive) |
| C=C[C@H]1CN2CC[C@H]1C[C@@H]2[C@@H](O)c1ccnc2ccc(OC)cc12 | > 4 mM (inactive) |
| O=C1CSC2=NCCCN12 | > 4 mM (inactive) |
| OCC1CCCN2CCCCC12 (centres undefined) | > 4 mM (inactive) |
| Cc1nc(NCc2ccco2)nc2c1C(=O)CC(C)C2 (centres undefined) | > 4 mM (inactive) |
| Cc1cc(=O)n2ncn(Cc3ccccc3)c2n1 | > 4 mM (inactive) |
| COc1ccc2c(c1)CCCN2C(N)=O | > 4 mM (inactive) |
| O=C1C2CCCCC2C(=O)N1c1nccs1 (centres undefined) | > 4 mM (inactive) |
| CC(C)(O)[C@@H]1Cc2cc3ccc(=O)oc3cc2O1 | > 4 mM (inactive) |
| NC(=O)c1ccsc1NC(=O)c1ccco1 | > 4 mM (inactive) |
| O=C1C[C@@H](c2ccccc2)Oc2cc(O)cc(O)c21 | > 4 mM (inactive) |
| Nc1nncn1C(=O)c1ccccc1Cl | > 4 mM (inactive) |
| Cc1ccc(C(=O)Nc2c[nH]c(=O)[nH]c2=O)cc1 | > 4 mM (inactive) |
| CN1CCN(C(=O)C2CCCNC2)CC1 (centres undefined) | > 4 mM (inactive) |
| CCOCC(=O)NCc1n[nH]c(=O)c2ccccc12 | > 4 mM (inactive) |
| CCCc1cc2c(c(NC(C)=O)n1)c(=O)oc1ccccc12 | > 4 mM (inactive) |
| Cc1cc(=O)[nH]c(NCc2cccnc2)n1 | > 4 mM (inactive) |
| O=C(C1CCNCC1)N1CCCCCC1 | > 4 mM (inactive) |

| Structure (SMILES) | Kd |
| --- | --- |
| Cc1c(C(=O)O)cnn1-c1ccccc1 | > 4 mM (inactive) |
| CC1=C2C(O)C(=O)OC3CC4C(C)(C)C(=O)C=C[C@]4(C)C(CC1)[C@]23C (some centres undefined) | > 4 mM (inactive) |
| CSc1nnc2c(n1)OC=Nc1ccccc1-2 | > 4 mM (inactive) |
| CSc1nc(C)cc(-n2ccc(=O)[nH]c2=O)n1 | > 4 mM (inactive) |
| Cc1occc1C(=O)Nc1nnc(C(F)(F)F)s1 | > 4 mM (inactive) |
| CC(NC(=O)c1cccnc1)c1ccc2c(c1)OCO2 (centres undefined) | > 4 mM (inactive) |
| O=C(CSc1cccc2cccnc12)N1CCCC1 | > 4 mM (inactive) |
| Cn1ccc(C(=O)NC(=S)NN2CCOCC2)n1 | > 4 mM (inactive) |
| CC(=O)Cc1nsc(NC(=O)c2ccc(C)cc2)n1 | > 4 mM (inactive) |
| NS(=O)(=O)c1ccc(N=Cc2ccc[nH]2)cc1 | > 4 mM (inactive) |
| Cc1ccccc1NC(=O)C1CC(=O)N=C(N)S1 (centres undefined) | > 4 mM (inactive) |
| CNc1nc(SC)nc(N2CCOCC2)n1 | > 4 mM (inactive) |
| Cc1nnc(SCc2ccccc2)[nH]c1=O | > 4 mM (inactive) |
| Cc1ccc2cc(CO)ccc2n1 | > 4 mM (inactive) |
| C[C@@H]1O[C@@H](O[C@H]2C[C@@H](O)[C@]3(CO)C4C(CC[C@]3(O)C2)[C@@]2(O)CC[C@H](C3=CC(=O)OC3)[C@@]2(C)C[C@H]4O)[C@H](O)[C@H](O)[C@H]1O (some centres undefined) | > 4 mM (inactive) |
| COC(=O)c1ccc(N2CCCC2)nc1 | > 4 mM (inactive) |
| Cc1ccc(C(=O)Nn2cnnc2)s1 | > 4 mM (inactive) |
| O=C(O)c1ccc2c(c1)OCCO2 | > 4 mM (inactive) |
| CC(=O)NCC1OCCc2ccccc21 (centres undefined) | > 4 mM (inactive) |
| CNc1nc(OC)nc(N2CCOCC2)n1 | > 4 mM (inactive) |
| OC[C@H]1O[C@@H](Oc2ccc(O)cc2)[C@H](O)[C@@H](O)[C@@H]1O | > 4 mM (inactive) |
| O=C1C(=O)N(CN2CCN(CCO)CC2)c2ccccc21 | > 4 mM (inactive) |
| O=C(O)c1cccnc1Oc1ccccc1 | > 4 mM (inactive) |

| Structure (SMILES) | Kd |
| --- | --- |
| CCCNC(=O)CSc1ncccc1C(=O)O | > 4 mM (inactive) |
| COc1cc2c(cc1OC)[C@@H]1C(=O)c3ccc4c(c3O[C@@H]1CO2)C=CC(C)(C)O4 | > 4 mM (inactive) |
| Oc1ccc(C(=S)N2CCOCC2)cc1 | > 4 mM (inactive) |
| CN1CCC=C(C(=O)O)C1 | > 4 mM (inactive) |
| CC(=O)Oc1c(-c2ccccc2)oc2c(CC=C(C)C)c3c(c(OC(C)=O)c2c1=O)C=CC(C)(C)O3 | > 4 mM (inactive) |
| CC1CCN(C(=O)c2ccc3c(c2)OCCO3)CC1 | > 4 mM (inactive) |
| O=C(Nc1ccccc1)Nc1ccccn1 | > 4 mM (inactive) |
| C/C=C(/C)C(=O)O[C@@H]1[C@H](OC(C)=O)[C@@]2(CO)C(CC1(C)C)C1=CCC3[C@@]4(C)CC[C@H](O[C@@H]5O[C@H](C(=O)O)[C@@H](O[C@@H]6O[C@H](CO)[C@@H](O)[C@H](O)[C@H]6O)[C@H](O)[C@H]5O[C@@H]5O[C@H](CO)[C@@H](O)[C@H](O)[C@H]5O)[C@](C)(CO)C4CC[C@@]3(C)[C@]1(C)C[C@H]2O (some centres undefined) | > 4 mM (inactive) |
| NC(=O)c1cc(N)ccc1N1CCCCC1 | > 4 mM (inactive) |
| Cc1noc(C)c1CSc1nc2ccccc2[nH]1 | > 4 mM (inactive) |
| COC(=O)Cc1cc(=O)n(-c2ccccc2)[nH]1 | > 4 mM (inactive) |
| CSc1nc(-c2ccccc2)ccc1C(N)=O | > 4 mM (inactive) |
| Cn1c2c(c(=O)n(C)c1=O)CN(Cc1ccco1)CN2 | > 4 mM (inactive) |
| O=[N+]([O-])c1cccc(-c2nnco2)c1 | > 4 mM (inactive) |
| O=C(Nc1ccccc1F)c1ccncc1 | > 4 mM (inactive) |
| CN(C)c1ccc(/C=C2/NC(=S)NC2=O)cc1 | > 4 mM (inactive) |
| O=c1[nH]c(CN2CCN(CCO)CC2)nc2ccccc12 | > 4 mM (inactive) |
| NC(=O)CCn1cnc2ccccc21 | > 4 mM (inactive) |
| O=C(O)c1ccc2sccc2c1 | > 4 mM (inactive) |
| CCOC(=O)C1C(C=C(C)C)C1(C)C (centres undefined) | > 4 mM (inactive) |
| CCCCCCCCCCCCCCCCCCOCC(O)CO (centres undefined) | > 4 mM (inactive) |
| Cc1ccc(C(=O)N2CCC(C(N)=O)CC2)c(Cl)c1 | > 4 mM (inactive) |
| CN(C)CC(O)C1CCOC(C)(C)C1 (centres undefined) | > 4 mM (inactive) |

| Structure (SMILES) | Kd |
| --- | --- |
| c1ccc2c(c1)nnn2C1CCNCC1 | > 4 mM (inactive) |
| CC(=O)Nc1sc(C)c(C)c1C(N)=O | > 4 mM (inactive) |
| Nn1c(CN2CCCCC2)nc2ccccc2c1=O | > 4 mM (inactive) |
| Cc1occc1C(=O)Nc1nnc(C2CCCCC2)s1 | > 4 mM (inactive) |
| COC(=O)c1sc(N)nc1C | > 4 mM (inactive) |
| O=C(NCc1ccco1)c1ccc(Br)s1 | > 4 mM (inactive) |
| CC(C(N)=O)N1C(=O)c2ccccc2C1=O (centres undefined) | > 4 mM (inactive) |
| O=C(O)CSCC(=O)Nc1cccc(O)c1 | > 4 mM (inactive) |
| Cc1cc(=O)n2[nH]c(COc3ccccc3)nc2n1 | > 4 mM (inactive) |
| NS(=O)(=O)c1ccc2c3c(cccc13)C(=O)N2 | > 4 mM (inactive) |
| Nc1cccc(S(N)(=O)=O)c1 | > 4 mM (inactive) |
| Cn1ccc(NC(=S)Nc2cccc([N+](=O)[O-])c2)n1 | > 4 mM (inactive) |
| OCc1ccc2occc2c1 | > 4 mM (inactive) |
| CC(=O)c1csc(-c2cc(C)on2)n1 | > 4 mM (inactive) |
| Nc1ccc(NC(=O)c2ccco2)c(Cl)c1 | > 4 mM (inactive) |
| CCn1c(=O)cc(N2CCC3(CC2)OCCO3)[nH]c1=O | > 4 mM (inactive) |
| COc1cc(C(=S)N2CCCC2)cc(Cl)c1O | > 4 mM (inactive) |
| O=C1CCCC2C3CC(CN12)[C@@H]1CCCCN1C3 (some centres undefined) | > 4 mM (inactive) |
| O=C1NC(=S)NC(=O)C1=Cc1ccncc1 | > 4 mM (inactive) |
| Oc1cccc(N2CCOCC2)c1 | > 4 mM (inactive) |
| O=c1c(O)cc([C@H]2Oc3cc(O)cc(O)c3C[C@H]2O)cc2c([C@H]3Oc4cc(O)cc(O)c4C[C@H]3O)cc(O)c(O)c12 | > 4 mM (inactive) |
| O=C(NCc1cccs1)c1ccncc1 | > 4 mM (inactive) |
